Assay results taken from patent US20070213291A1, “Therapeutically useful synthetic oligonucleotides” (priority 1999, published 2007).

Columns and labels:
[1] = system: Jurkat human leukemia T cells; assay: Inhibition of Jurkat human leukemia T cell proliferation (MTT reduction); type: cell-based; settings: 100 μg/ml sequence, 48 h, 2.5×10^5 cells/ml
In short: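 Read-out is MTT absorbance at 570 nm after 48 h. Sequences of 2 to 45 bases (A, C, G, T) tested at 100 μg/ml against untreated control, with 2.5×10^5 Jurkat cells/ml held at 37° C under 5% CO2.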

[2] = system: LNCaP human prostate cancer cells; assay: Inhibition of LNCaP cell proliferation (MTT); type: cell-based; settings: 100 μg/ml, 48 h, 5×10^5 cells/ml
Protocol: (§1) Cells were seeded in 6 (1 ml/well), 24 (0.5 ml/well) or 96 (0.1 ml/well) well flat-bottom microplates and were maintained at 37° C. in a 5% CO2 atmosphere. Unless stated otherwise, 2.5×10^5 cells/ml were incubated with 0 μg/ml (control) and 100 μg/ml (treated) of 2 to 45 base sequences containing A, C, G and T for 48 h.
(§2) Cell proliferation was measured using dimethylthiazol-diphenyl-tetrazolium (MTT) reduction (Mosman et al. J. Immunol. Methods 65:55, 1983). MTT was measured at a wavelength of 570 nm using a multiplate spectrophotometer reader (ELX800, Bio-TEK Instruments Inc., Winooski, Vt.).
LNCaP prostate cancer cells are a TGF-beta 1 receptor negative, […], metastatic human solid tumor model. LNCaP cells (5×10^5 cells/ml) were incubated with 6 base GT sequences (Table 9).

[3] = system: MCF-7 human breast cancer cells; assay: Inhibition of MCF-7 cell proliferation (MTT); type: cell-based; settings: 100 μg/ml, 48 h, 5×10^5 cells/ml
Protocol: as §1, §2
MCF-7 human breast cancer cells are a caspase 3 negative, estrogen-dependent human solid tumor model. MCF-7 cells (5×10^5 cells/ml) were incubated with 3 and 6 base GT sequences (Table 7).

[4] = system: THP-1 human acute monocytic leukemia cells; assay: Cytokine production by THP-1 cells (ELISA); type: cell-based; settings: THP-1, 1×10^6 cells, 100 μg/ml, 48 h; for ↑ IL-12 (fold increase treated vs control cells): p70 complex and free p40
In short: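 Read-out is fold increase in supernatant cytokine versus control cells, measured by ELISA (IL-12 ELISA counts p70 complex plus free p40). Unless noted, sequences were tested at 100 μg/ml on 1×10^6 cells, incubated 48 h, 37° C, 5% CO2.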

[5] = system: CF-51 canine mammary gland cancer cells; assay: Inhibition of CF-51 cell proliferation (MTT); type: cell-based; settings: 100 μg/ml, 48 h, 5×10^5 cells/ml
Protocol: as §1, §2
(§3) D-17 canine osteosarcoma cells and CF-51 canine mammary gland cancer cells are solid tumor models. D-17 canine osteosarcoma cells (5×10^5 cells/ml) (Table 20) and CF-51 canine mammary gland cancer cells (5×10^5 cells/ml) (Table 21) were incubated with 6, 9, 17, 27 and 33 base GT-sequences and with a 15 base ACG sequence.

[6] = system: D-17 canine osteosarcoma cells; assay: Inhibition of D-17 cell proliferation (MTT); type: cell-based; settings: 100 μg/ml, 48 h, 5×10^5 cells/ml
Protocol: as §1, §2, §3

caspase 3 and caspase 7 = assay: Caspase 3 and caspase 7 activation by peptide-sequence constructs in Jurkat cells; type: cell-based, human; settings: 72 h, present-tense example
Protocol: Reactive carboxylate and reactive amine groups are deprotected subsequent to conjugation,
To determine caspase activation, control and treated cells are washed, fixed, permeabilized and incubated with an FITC-conjugated antibody that recognizes the active form of the caspase (Pharmingen, San Diego, Calif.) using the conditions recommended by the manufacturer. Fluorescence associated with active caspase 3 is analyzed by flow cytometry on a FACSCALIBUR using the program CellQUEST (Becton Dickinson). Alternatively, caspase activation is determined colorimetrically using an assay based on the cleavage of a caspase-specific peptide conjugated to the color reporter molecule p-nitroanilide, which can be quantitated spectrophotometrically at a wavelength of 405 nm.
Jurkat human leukemia T cells are incubated for 72 h with NH2—YVAD-CO-GG(GT)GG, NH2-DEVD-CO-GG(GT)GG, NH2—EGD-COO-GG(GT)GG, NH2-YVAD-CO-[…], NH2-DVED-CO-[…] and NH2—IEGD-CO-[…]. Caspase 3 and caspase 7 activation are determined.

[7] = system: Jurkat human leukemia T cells; assay: NuMA release into supernatant (ELISA); type: cell-based; settings: Jurkat, 50 μM sequence
Protocol: (§4) The redistribution of phosphatidylserine in the plasma membrane during apoptosis was measured by flow cytometry using FITC-conjugated annexin V (BD Pharmingen, San Diego, Calif.). NuMA release into the supernatant was determined using a commercial ELISA kit (Oncogen/Calbiochem, Cambridge, Mass.).
Jurkat human leukemia T cells were incubated with 50 μM of 3, 4, 5, 6 and 7 GT base sequences, a 5 base ACGT sequence, 6 base AG, GG, AGT and CGT sequences and a 7 base GG sequence.
Jurkat human leukemia T cells (1×10^6/ml) were incubated with 6 and 27 GT base sequences (Table 32). NuMA was determined as in Example 23.
Jurkat human cell leukemia T cells were incubated for 24 h with 6 base GT SEQ ID NO:25, complementary 6 base AC SEQ ID NO:79, and 6 base GT SEQ ID NO:25+6 base AC SEQ ID NO:79. GT SEQ ID NO:25 and AC SEQ ID NO:79 were hybridized by mixing the sequences (1:1) and heating for 10 minutes at 65° C. As controls, GT SEQ ID NO:25 and AC SEQ ID NO:79 were heated for 10 minutes at 65° C. (Table 33). Apoptosis was evaluated as in Example 23.

[8] = system: Jurkat human leukemia T cells; assay: Apoptosis by phosphatidylserine/annexin V-FITC flow cytometry; type: cell-based; settings: 50 μM sequence
Protocol: as §4
Jurkat human leukemia T cells were incubated with 50 μM of 3, 4, 5, 6 and 7 GT base sequences, a 5 base ACGT sequence, 6 base AG, GG, AGT and CGT sequences and a 7 base GG sequence. […]
Jurkat human leukemia T cells were incubated with GT-rich or AC-rich sequences derived from the murA gene of Mycobacterium phlei (GenBank: Accession Number X99776). Inhibition of proliferation was measured by the reduction of MTT as in Example 3, cell cycle arrest was detected by flow cytometry using propidium iodide as in Example 21 and apoptosis was evaluated by flow cytometry using annexin-V-FITC as in Example 23.

[9] = system: PC-3 human prostate cancer cells; assay: Inhibition of PC-3 cell proliferation (MTT); type: cell-based; settings: 100 μg/ml, 48 h, 5×10^5 cells/ml
Protocol: as §1, §2
PC-3 prostate cancer cells are a p53 mutated, androgen-independent human solid tumor model. PC-3 cells (5×10^5 cells/ml) were incubated with 3 and 6 base GT sequences (Table 8).

Substance | % INHIBITION of Jurkat human leukemia T cell proliferation [1] [%] | % INHIBITION of LNCaP human prostate cancer cell proliferation [2] [%] | % INHIBITION of MCF-7 human breast cancer cell proliferation [3] [%] | ↑ IL-12 (fold increase treated vs control cells) [4] [x] | processing of inactive caspase 3 and caspase 7 to active forms (caspase 3 and caspase 7) | also measured
TGTGTG [SEQ ID NO:9 phosphorothioate] (phosphorothioate backbone) | −17 | −16 | 6 | −0.1 | – | –
GTGTGT [SEQ ID NO:10 phosphorothioate] | 0 | −20 | 12 | −0.2 | – | –
TGTGTGTGTGTGTGTGTG (unmodified DNA) [SEQ ID NO:17] | 56 | – | – | – | – | % INHIBITION of CF-51 canine mammary gland cancer cell proliferation [5]: 8%; % INHIBITION of D-17 canine osteosarcoma cell proliferation [6]: 8%; ↑ IL-6 (fold increase treated vs control cells) [4]: 2.2x
TTGTTT [SEQ ID NO:26 phosphorothioate] | 0 | −1 | 6 | −0.1 | – | –
TTTGTT [SEQ ID NO:23 phosphorothioate] (phosphorothioate backbone) | 4 | −11 | 8 | 0.1 | – | –
NH2—EGD-COO-GG(GT)GG [NH2—IEGD-COO-GT] | – | – | – | – | induce processing of inactive caspase 3 to active caspase 3 and of inactive caspase 7 to active caspase 7 | –
NH2—YVAD-CO-GG(GT)GG [NH2—YVAD-CO-GT] | – | – | – | – | induce processing of inactive caspase 3 to active caspase 3 and of inactive caspase 7 to active caspase 7 | –
TGT (chemistry not given here) [SEQ ID NO:7] | 22 | – | −6 | – | – | % NuMA released (treated vs untreated cells) [7]: 35%; % of cells in apoptosis (positive for PS/A-V staining) [8]: 10%; % INHIBITION of PC-3 human prostate cancer cell proliferation [9]: 8%; ↑ IL-6 (fold increase treated vs control cells) [4]: 2.7x
NH2-YVAD-CO-AACCACAAGCCCAAC [NH2—YVAD-CO-ACG] | – | – | – | – | do not induce processing of inactive pro-caspase 3 to active caspase 3 or of inactive caspase 7 to active caspase 7 | –
NH2-DVED-CO-AACCACAAGCCCAAC [NH2-DVED-CO-ACG] | – | – | – | – | do not induce processing of inactive pro-caspase 3 to active caspase 3 or of inactive caspase 7 to active caspase 7 | –
NH2—IEGD-CO-AACCACAAGCCCAAC [NH2—IEGD-CO-ACG] | – | – | – | – | do not induce processing of inactive pro-caspase 3 to active caspase 3 or of inactive caspase 7 to active caspase 7 | –
NH2-DEVD-CO-GG(GT)GG [NH2-DEVD-CO-GT] | – | – | – | – | induce processing of inactive caspase 3 to active caspase 3 and of inactive caspase 7 to active caspase 7 | –
GGTGGG [SEQ ID NO:24 phosphorothioate] | 6 | −17 | 12 | −0.1 | – | –
